Results on 2 molecules are retold here after US20130018109A1, “Skin and hair treatments” (priority 2011, published 2013).

In data set [1] the test system is mice. To be noted: according to published information; cited from earlier work.
Data set [2] relates to migraine headaches. The data set can be described thus: Use of linalool shampoo by individuals suffering from migraines. The format is in vivo, human. To be noted: same individual, prescription drug taken before the shampoo use. The text has this: One individual who had suffered from migraines for several years and who had taken the prescription drug Prozac® with only limited benefits, started using a commercial product, Ivory Shampoo®, with approximately 1% by volume of linalool added. […] Other commercially available shampoos containing little perfume with approximately 1% by volume of linalool added were substituted for the Ivory Shampoo with linalool and the benefit persisted. Another commercially available shampoo that has been used with about 1% by volume of linalool added is Botanical Nutrients® soyflower shampoo containing: water; extracts of geranium maculatum (geranium), Echinacea angustifolia (coneflower), and lavendula angustifolia (lavender); ammonium lauryl sulfate; decyl glucoside; cocoamide MEA; PPG-5-ceteth-10-phosphatel cocoamidopropyl betaine; fragrance; polyquatemium-7; glycerin; panthenol; hydrolyzed soy protein; isostearamidopropyl morpholine lactate; vitamin E; disodium wheat germamido PEG-2 sulfosuccinate; guar hydroxypropyl ammonium chloride; PEG-150 distearate; PEG-30 castor oil; PEG-12 dimethicone; benzophenone-4; disodium EDTA; diazolidinyl urea; methylparaben; and citric acid. Another shampoo that has been used is Bath & Body Works® Bio balancing shampoo.
When this individual stopped using the commercial shampoos containing about 1% linalool, a migraine headache was experienced. […]

For `C=C(C)[C@H]1CC=C(C)CC1` [Limonene], in data set [1], the tumors in mice entry is reported as “shown to cause tumors in mice”.

Regarding `CNCCC(Oc1ccc(C(F)(F)F)cc1)c1ccccc1` (centres unmarked) [Prozac], in data set [2], the “prevention of migraine headaches by prescription drug” value was “had not prevented migraine headaches”.
